{"source": "paper PMC10747602", "about": "“Dose Response, Dosimetric, and Metabolic Evaluations of Replacement PFAS Perfluoro-(2,5,8-trimethyl-3,6,9-trioxadodecanoic) Acid (HFPO-TeA)” (Toxics, 2023)", "key": {"Sprague Dawley rats": {"system": "Sprague Dawley rats", "test": "Mortality in five-day oral gavage exposure; LD50 calculation (BMDS 3.3.2)", "conditions": "for LD50 estimate (lower and upper 95% bounds): oral gavage, BMDS 3.3.2 multistage 3 model", "experimental": "Male and female rats (n = 4/sex, dose, and time point) were dosed by gavage (5 mL/kg bodyweight) once daily for five days with water (vehicle control) or HFPO-TeA at eight half-log dose levels ranging from 0.3 to 335.2 mg/kg/day (i.e., 0.3, 0.9, 2.3, 6.3, 17, 45.9, 124, and 335.2). The results reported here are part of a larger study, for which the main purpose was to use benchmark dose–response modeling of transcriptomic data to identify a gene set basis for the point of departure (POD).\nClinical observations were performed prior to first administration and at termination. Moribundity and mortality were assessed twice daily on weekdays and once daily on weekends. Animals found moribund were euthanized by carbon dioxide inhalation and death was confirmed by cervical dislocation.\nThe mortality incident data were analyzed using BMDS 3.3.2, with the dichotomous model selected as the model type. The Benchmark Response was set at 0.5 extra risk. LD50 estimates were based on the model with the lowest Akaike information criterion (AIC)."}, "[1]": {"design": "method as in PMID 35436088", "conditions": "male mice, cited from earlier work"}}, "note": "Where two headings read alike, the source gives them in different places.", "data": [{"compound": "O=C(O)C(F)(OC(F)(F)C(F)(OC(F)(F)C(F)(OC(F)(F)C(F)(F)C(F)(F)F)C(F)(F)F)C(F)(F)F)C(F)(F)F", "note": "(stereo not shown) [HFPO-TeA, perfluoro-(2,5,8-trimethyl-3,6,9-trioxadodecanoic) acid]", "values": [{"measurement": "LD50 estimate (lower and upper 95% bounds)", "setting": "Sprague Dawley rats; females", "result": "28.23 (18.69 and 41.57) mg/kg/day"}, {"measurement": "premature death", "setting": "Sprague Dawley rats; male and female rats, 45.9, 124, and 335.2 mg/kg/day dose groups", "result": "Premature death occurred"}, {"measurement": "doses at which mortality was observed", "setting": "Sprague Dawley rats; male and female rats, oral gavage five days", "result": "> 17", "unit": "mg/kg/day"}, {"measurement": "LD50 estimate (lower and upper 95% bounds)", "setting": "Sprague Dawley rats; males", "result": "37.77 (26.09 and 59.96) mg/kg/day"}, {"measurement": "experimental Kp", "setting": "[1]; 0.02 mg/kg/day for 7 days", "result": "approximately 20"}, {"measurement": "experimental Kp", "setting": "[1]; 0.2 mg/kg/day for 7 days", "result": "~40"}, {"measurement": "experimental Kp", "setting": "[1]; 2 mg/kg/day for 7 days", "result": "~5"}]}]}
